One block for each compound: values may come before it.
Experiments:
Test in all cases: Caliper, Mobility shift assay off-chip
LYN (human) = LYN (human) (UniProt P07948)
BRSK1 (human) = BRSK1 (human) (UniProt Q8TDC3)
FGFR2 (human) = FGFR2 (human) (UniProt P21802)
AKT2 (human) = AKT2 (human) (UniProt P31751)
CAMK2B (human) = CAMK2B (human) (UniProt Q13554)
PIM1 (human) = PIM1 (human) (UniProt P11309)
BRSK2 (human) = BRSK2 (human) (UniProt Q8IWQ3)
PRKCA (human) = PRKCA (human) (UniProt P17252)
RPS6KA2 KD1 KD2 (human) = RPS6KA2 KD1 KD2 (human) (UniProt Q15349)
RPS6KA2 KD1 KD2 (human), sequence (Q15349 whole entry, looked up): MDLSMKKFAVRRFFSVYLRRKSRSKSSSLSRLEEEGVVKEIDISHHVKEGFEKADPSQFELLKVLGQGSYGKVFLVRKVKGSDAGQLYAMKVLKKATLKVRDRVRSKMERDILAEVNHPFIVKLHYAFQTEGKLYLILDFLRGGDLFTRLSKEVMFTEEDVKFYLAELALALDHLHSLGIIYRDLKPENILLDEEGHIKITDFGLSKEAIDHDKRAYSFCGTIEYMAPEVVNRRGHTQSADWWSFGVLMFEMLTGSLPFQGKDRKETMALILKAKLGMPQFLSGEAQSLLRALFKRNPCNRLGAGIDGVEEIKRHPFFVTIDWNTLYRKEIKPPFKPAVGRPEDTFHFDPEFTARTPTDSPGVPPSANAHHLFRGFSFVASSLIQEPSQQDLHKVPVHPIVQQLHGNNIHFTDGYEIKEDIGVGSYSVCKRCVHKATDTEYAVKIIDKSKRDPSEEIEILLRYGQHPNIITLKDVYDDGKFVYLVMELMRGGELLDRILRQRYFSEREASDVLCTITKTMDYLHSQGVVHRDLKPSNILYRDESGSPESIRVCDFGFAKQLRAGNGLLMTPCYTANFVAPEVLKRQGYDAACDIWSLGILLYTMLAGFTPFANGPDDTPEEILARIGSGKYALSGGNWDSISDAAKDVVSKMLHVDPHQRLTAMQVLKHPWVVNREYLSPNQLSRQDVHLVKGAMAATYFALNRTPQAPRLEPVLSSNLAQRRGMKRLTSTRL

PRKCB2 (human) = PRKCB2 (human) (UniProt P05771)
BTK (human) = BTK (human) (UniProt Q06187)
FLT3 (human) = FLT3 (human) (UniProt P36888)
FLT3 (human), sequence (P36888 whole entry, looked up): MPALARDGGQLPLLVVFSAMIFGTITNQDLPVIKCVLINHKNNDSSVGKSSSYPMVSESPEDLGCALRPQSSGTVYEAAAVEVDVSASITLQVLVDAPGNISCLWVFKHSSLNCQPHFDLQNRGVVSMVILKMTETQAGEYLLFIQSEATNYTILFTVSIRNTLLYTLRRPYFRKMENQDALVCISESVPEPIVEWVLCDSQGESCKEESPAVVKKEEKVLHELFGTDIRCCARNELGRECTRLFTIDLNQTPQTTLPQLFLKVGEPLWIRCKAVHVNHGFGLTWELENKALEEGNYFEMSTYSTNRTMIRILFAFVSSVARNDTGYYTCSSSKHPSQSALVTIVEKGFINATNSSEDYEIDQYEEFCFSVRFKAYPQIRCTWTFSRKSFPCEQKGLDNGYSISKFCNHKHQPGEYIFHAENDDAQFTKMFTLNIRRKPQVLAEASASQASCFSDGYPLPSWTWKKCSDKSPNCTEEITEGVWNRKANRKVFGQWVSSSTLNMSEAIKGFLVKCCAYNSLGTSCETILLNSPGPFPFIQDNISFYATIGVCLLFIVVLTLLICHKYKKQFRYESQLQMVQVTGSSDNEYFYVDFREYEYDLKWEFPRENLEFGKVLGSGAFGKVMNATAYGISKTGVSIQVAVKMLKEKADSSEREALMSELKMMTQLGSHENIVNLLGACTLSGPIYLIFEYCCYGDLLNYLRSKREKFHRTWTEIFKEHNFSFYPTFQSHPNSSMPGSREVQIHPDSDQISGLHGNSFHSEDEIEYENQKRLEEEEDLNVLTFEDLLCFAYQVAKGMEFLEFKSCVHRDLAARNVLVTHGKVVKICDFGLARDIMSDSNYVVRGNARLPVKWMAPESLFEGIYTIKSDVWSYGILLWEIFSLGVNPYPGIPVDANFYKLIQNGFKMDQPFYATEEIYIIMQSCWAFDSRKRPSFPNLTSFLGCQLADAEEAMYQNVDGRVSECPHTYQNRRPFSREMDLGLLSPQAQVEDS

MAPK14 (human) = MAPK14 (human) (UniProt Q16539)
FYN (human) = FYN (human) (UniProt P06241)
PRKCB1 (human) = PRKCB1 (human) (UniProt P05771)
RPS6KA3 KD1 KD2 (human) = RPS6KA3 KD1 KD2 (human) (UniProt P51812)
TSSK1B (human) = TSSK1B (human) (UniProt Q9BXA7)
TSSK1B (human), sequence (Q9BXA7 whole entry, looked up): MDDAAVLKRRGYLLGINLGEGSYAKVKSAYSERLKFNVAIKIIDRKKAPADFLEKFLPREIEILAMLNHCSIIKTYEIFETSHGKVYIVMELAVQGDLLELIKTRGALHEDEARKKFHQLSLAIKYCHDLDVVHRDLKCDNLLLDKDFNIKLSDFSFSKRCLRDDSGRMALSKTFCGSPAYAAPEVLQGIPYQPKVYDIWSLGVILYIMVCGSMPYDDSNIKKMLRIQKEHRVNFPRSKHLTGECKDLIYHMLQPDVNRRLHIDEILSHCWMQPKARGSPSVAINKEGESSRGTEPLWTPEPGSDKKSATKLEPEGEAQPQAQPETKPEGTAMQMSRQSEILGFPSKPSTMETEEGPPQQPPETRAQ

AURKA (human) = AURKA (human) (UniProt O14965)
[1] = tested on: ABL1 (human), P00519 [Q252H]
PRKCE (human) = PRKCE (human) (UniProt Q02156)
PIM2 (human) = PIM2 (human) (UniProt Q9P1W9)
[2] = tested on: ABL1 (human), P00519 [T315I]
MAPK13 (human) = MAPK13 (human) (UniProt O15264)
MAPK13 (human), sequence (O15264 whole entry, looked up): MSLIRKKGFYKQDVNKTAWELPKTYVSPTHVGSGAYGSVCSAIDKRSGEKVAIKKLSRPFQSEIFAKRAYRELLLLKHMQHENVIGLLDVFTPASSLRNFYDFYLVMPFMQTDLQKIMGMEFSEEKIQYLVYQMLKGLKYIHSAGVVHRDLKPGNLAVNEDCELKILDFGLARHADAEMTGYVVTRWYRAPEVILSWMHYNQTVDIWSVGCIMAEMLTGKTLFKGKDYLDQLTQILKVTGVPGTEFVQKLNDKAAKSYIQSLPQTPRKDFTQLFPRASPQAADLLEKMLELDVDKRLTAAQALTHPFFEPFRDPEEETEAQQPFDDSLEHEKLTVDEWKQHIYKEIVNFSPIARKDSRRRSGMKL

MAPKAPK2 (human) = MAPKAPK2 (human) (UniProt P49137)
MAPKAPK2 (human), sequence (P49137 whole entry, looked up): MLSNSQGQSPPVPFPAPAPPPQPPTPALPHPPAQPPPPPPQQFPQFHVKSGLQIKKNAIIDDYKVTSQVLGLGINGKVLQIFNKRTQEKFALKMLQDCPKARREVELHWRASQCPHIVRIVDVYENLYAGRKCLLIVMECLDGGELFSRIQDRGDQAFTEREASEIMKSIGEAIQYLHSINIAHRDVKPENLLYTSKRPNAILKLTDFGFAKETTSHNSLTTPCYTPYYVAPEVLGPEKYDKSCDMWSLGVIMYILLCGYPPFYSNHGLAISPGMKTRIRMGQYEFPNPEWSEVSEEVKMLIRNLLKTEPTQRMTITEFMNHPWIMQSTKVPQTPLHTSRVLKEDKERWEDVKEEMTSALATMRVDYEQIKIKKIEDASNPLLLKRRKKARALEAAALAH

KDR (human) = KDR (human) (UniProt P35968)
RPS6KA1 KD1 KD2 (human) = RPS6KA1 KD1 KD2 (human) (UniProt Q15418)
CDK2 (human) = CDK2 (human) (UniProt P24941)
MARK2 (human) = MARK2 (human) (UniProt Q7KZI7)
CAMK4 (human) = CAMK4 (human) (UniProt Q16566)
MAPKAPK3 (human) = MAPKAPK3 (human) (UniProt Q16644)
MAPKAPK3 (human), sequence (Q16644 whole entry, looked up): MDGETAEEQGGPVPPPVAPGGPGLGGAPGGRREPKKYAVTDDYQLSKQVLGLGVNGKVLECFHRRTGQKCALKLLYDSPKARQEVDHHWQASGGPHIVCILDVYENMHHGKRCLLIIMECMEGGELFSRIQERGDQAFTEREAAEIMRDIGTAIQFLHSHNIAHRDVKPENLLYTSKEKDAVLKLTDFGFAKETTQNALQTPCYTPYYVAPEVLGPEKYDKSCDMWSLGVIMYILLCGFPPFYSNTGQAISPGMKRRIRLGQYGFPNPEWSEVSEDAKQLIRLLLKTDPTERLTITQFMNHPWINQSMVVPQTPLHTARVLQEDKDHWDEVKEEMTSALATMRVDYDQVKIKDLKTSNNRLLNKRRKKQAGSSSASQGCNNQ

TSSK2 (human) = TSSK2 (human) (UniProt Q96PF2)
RPS6KA5 KD1 KD2 (human) = RPS6KA5 KD1 KD2 (human) (UniProt O75582)
MAPK3 (human) = MAPK3 (human) (UniProt P27361)

CAMK2B (human), sequence (Q13554 whole entry, looked up): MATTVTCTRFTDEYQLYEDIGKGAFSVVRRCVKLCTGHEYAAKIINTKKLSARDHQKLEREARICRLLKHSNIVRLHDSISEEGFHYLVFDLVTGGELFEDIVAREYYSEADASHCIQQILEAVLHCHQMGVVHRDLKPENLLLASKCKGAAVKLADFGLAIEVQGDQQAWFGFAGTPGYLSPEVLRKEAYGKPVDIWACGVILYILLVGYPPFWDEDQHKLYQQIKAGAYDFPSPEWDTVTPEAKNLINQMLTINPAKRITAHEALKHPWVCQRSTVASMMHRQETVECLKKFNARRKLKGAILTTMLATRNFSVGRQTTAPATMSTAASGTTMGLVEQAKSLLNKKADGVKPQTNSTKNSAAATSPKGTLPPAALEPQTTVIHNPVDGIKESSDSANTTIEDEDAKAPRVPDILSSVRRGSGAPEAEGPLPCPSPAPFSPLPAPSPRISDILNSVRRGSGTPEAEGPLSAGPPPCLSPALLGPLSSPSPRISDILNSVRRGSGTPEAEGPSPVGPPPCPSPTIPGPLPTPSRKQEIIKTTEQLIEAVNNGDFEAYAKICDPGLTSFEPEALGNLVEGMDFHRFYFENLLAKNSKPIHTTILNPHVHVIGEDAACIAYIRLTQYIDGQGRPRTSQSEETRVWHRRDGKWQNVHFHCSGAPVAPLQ
PIM1 (human), sequence (P11309 whole entry, looked up): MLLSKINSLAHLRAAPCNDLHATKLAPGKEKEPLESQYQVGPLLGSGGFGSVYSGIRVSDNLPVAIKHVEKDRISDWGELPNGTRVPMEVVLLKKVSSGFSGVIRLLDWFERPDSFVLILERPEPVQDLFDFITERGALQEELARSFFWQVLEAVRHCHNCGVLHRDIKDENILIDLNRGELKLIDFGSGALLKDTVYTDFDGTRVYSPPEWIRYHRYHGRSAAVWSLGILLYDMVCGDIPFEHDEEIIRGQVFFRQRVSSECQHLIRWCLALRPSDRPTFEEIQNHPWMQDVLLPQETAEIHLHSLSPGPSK
AKT2 (human), sequence (P31751 whole entry, looked up): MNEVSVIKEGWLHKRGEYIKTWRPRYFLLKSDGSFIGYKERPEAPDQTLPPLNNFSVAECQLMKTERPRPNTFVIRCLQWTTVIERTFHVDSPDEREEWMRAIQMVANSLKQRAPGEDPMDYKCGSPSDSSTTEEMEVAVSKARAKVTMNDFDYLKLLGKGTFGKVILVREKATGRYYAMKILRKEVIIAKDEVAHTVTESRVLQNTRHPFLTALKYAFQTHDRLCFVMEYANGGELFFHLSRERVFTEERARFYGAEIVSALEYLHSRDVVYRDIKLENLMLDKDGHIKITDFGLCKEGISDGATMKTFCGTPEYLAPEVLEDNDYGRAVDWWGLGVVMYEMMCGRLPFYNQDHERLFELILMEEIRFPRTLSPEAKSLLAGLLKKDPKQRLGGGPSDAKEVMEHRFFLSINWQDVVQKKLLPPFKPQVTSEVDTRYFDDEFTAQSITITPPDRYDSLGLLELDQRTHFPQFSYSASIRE

inhibition (LYN (human); compound 0.01 µM): 9.1%
inhibition (LYN (human); compound 0.1 µM): 3.6%
inhibition (BRSK1 (human); compound 0.01 µM): -2.1%
inhibition (BRSK1 (human); compound 0.1 µM): -1.6%
inhibition (FGFR2 (human); compound 0.01 µM): 0.5%
inhibition (FGFR2 (human); compound 0.1 µM): 16.5%
inhibition (AKT2 (human); compound 0.01 µM): -1.3%
inhibition (AKT2 (human); compound 0.1 µM): 2%
inhibition (CAMK2B (human); compound 0.01 µM): 4.4%
inhibition (CAMK2B (human); compound 0.1 µM): -5.2%
inhibition (PIM1 (human); compound 0.01 µM): -11.4%
inhibition (PIM1 (human); compound 0.1 µM): -4.6%
inhibition (BRSK2 (human); compound 0.01 µM): 0.3%
inhibition (BRSK2 (human); compound 0.1 µM): 9.7%
inhibition (PRKCA (human); compound 0.01 µM): -5.5%
inhibition (PRKCA (human); compound 0.1 µM): 5.2%
inhibition (RPS6KA2 KD1 KD2 (human); compound 0.01 µM): 6.7%
inhibition (RPS6KA2 KD1 KD2 (human); compound 0.1 µM): 10.4%
inhibition (PRKCB2 (human); compound 0.01 µM): 1.4%
inhibition (PRKCB2 (human); compound 0.1 µM): 5.7%
inhibition (BTK (human); compound 0.01 µM): 8.4%
inhibition (BTK (human); compound 0.1 µM): 5.5%
inhibition (FLT3 (human); compound 0.01 µM): -1%
inhibition (FLT3 (human); compound 0.1 µM): -2.3%
inhibition (MAPK14 (human); compound 0.01 µM): -1.7%
inhibition (MAPK14 (human); compound 0.1 µM): -2.6%
inhibition (FYN (human); compound 0.01 µM): -0.7%
inhibition (FYN (human); compound 0.1 µM): -3%
inhibition (PRKCB1 (human); compound 0.01 µM): -6%
inhibition (PRKCB1 (human); compound 0.1 µM): 1.4%
inhibition (RPS6KA3 KD1 KD2 (human); compound 0.01 µM): -3.6%
inhibition (RPS6KA3 KD1 KD2 (human); compound 0.1 µM): -3.8%
inhibition (TSSK1B (human); compound 0.01 µM): -3.1%
inhibition (TSSK1B (human); compound 0.1 µM): 1.9%
inhibition (AURKA (human); compound 0.01 µM): 5.8%
inhibition (AURKA (human); compound 0.1 µM): 6.9%
inhibition ([1]; compound 0.01 µM): 2.5%
inhibition ([1]; compound 0.1 µM): 7.6%
inhibition (PRKCE (human); compound 0.01 µM): -0.5%
inhibition (PRKCE (human); compound 0.1 µM): 3.8%
inhibition (PIM2 (human); compound 0.01 µM): -11%
inhibition (PIM2 (human); compound 0.1 µM): 4.3%
inhibition ([2]; compound 0.01 µM): 0.6%
inhibition ([2]; compound 0.1 µM): 0.3%
inhibition (MAPK13 (human); compound 0.01 µM): -5.2%
inhibition (MAPK13 (human); compound 0.1 µM): -3%
inhibition (MAPKAPK2 (human); compound 0.01 µM): -0.8%
inhibition (MAPKAPK2 (human); compound 0.1 µM): -0.9%
inhibition (KDR (human); compound 0.01 µM): 3.5%
inhibition (KDR (human); compound 0.1 µM): -10%
inhibition (RPS6KA1 KD1 KD2 (human); compound 0.01 µM): 1.3%
inhibition (RPS6KA1 KD1 KD2 (human); compound 0.1 µM): 3.4%
inhibition (CDK2 (human); compound 0.01 µM): -2.1%
inhibition (CDK2 (human); compound 0.1 µM): 11.7%
inhibition (MARK2 (human); compound 0.01 µM): -2.5%
inhibition (MARK2 (human); compound 0.1 µM): -1.4%
inhibition (CAMK4 (human); compound 0.01 µM): 2.1%
inhibition (CAMK4 (human); compound 0.1 µM): 2.3%
inhibition (MAPKAPK3 (human); compound 0.01 µM): -8%
inhibition (MAPKAPK3 (human); compound 0.1 µM): 4.1%
inhibition (TSSK2 (human); compound 0.01 µM): 2.5%
inhibition (TSSK2 (human); compound 0.1 µM): 0.7%
inhibition (RPS6KA5 KD1 KD2 (human); compound 0.01 µM): 3.4%
inhibition (RPS6KA5 KD1 KD2 (human); compound 0.1 µM): -4.2%
SMILES: Cn1cc(-c2cnc3ccc4ccc(CS(=O)(=O)NC5CCCCC5)cc4c(=O)c3c2)cn1

inhibition (LYN (human); compound 0.1 µM): -8.7%
inhibition (LYN (human); compound 1.0 µM): -2.3%
inhibition (BRSK1 (human); compound 0.1 µM): 5.6%
inhibition (BRSK1 (human); compound 1.0 µM): 12.5%
inhibition (FGFR2 (human); compound 0.1 µM): 21.8%
inhibition (FGFR2 (human); compound 1.0 µM): 47.9%
inhibition (AKT2 (human); compound 0.1 µM): 1.7%
inhibition (AKT2 (human); compound 1.0 µM): 7.1%
inhibition (CAMK2B (human); compound 0.1 µM): -21.3%
inhibition (CAMK2B (human); compound 1.0 µM): -19.3%
inhibition (PIM1 (human); compound 0.1 µM): -4.1%
inhibition (PIM1 (human); compound 1.0 µM): 3.7%
inhibition (PRKCA (human); compound 0.1 µM): 3.1%
inhibition (RPS6KA2 KD1 KD2 (human); compound 0.1 µM): -0.2%
inhibition (RPS6KA2 KD1 KD2 (human); compound 1.0 µM): 9%
inhibition (PRKCB2 (human); compound 0.1 µM): 2.6%
inhibition (PRKCB2 (human); compound 1.0 µM): -6%
inhibition (FLT3 (human); compound 0.1 µM): 4.2%
inhibition (FLT3 (human); compound 1.0 µM): 48.8%
inhibition (MAPK14 (human); compound 0.1 µM): -13.9%
inhibition (MAPK14 (human); compound 1.0 µM): 6.9%
inhibition (FYN (human); compound 0.1 µM): -3.7%
inhibition (FYN (human); compound 1.0 µM): 6%
inhibition (PRKCB1 (human); compound 0.1 µM): -9.3%
inhibition (RPS6KA3 KD1 KD2 (human); compound 0.1 µM): 1.2%
inhibition (RPS6KA3 KD1 KD2 (human); compound 1.0 µM): -1.7%
inhibition (TSSK1B (human); compound 0.1 µM): -0.9%
inhibition (TSSK1B (human); compound 1.0 µM): 1%
inhibition (AURKA (human); compound 0.1 µM): 27.6%
inhibition (AURKA (human); compound 1.0 µM): 75.5%
inhibition ([1]; compound 0.1 µM): -0.1%
inhibition ([1]; compound 1.0 µM): 24.9%
inhibition (PRKCE (human); compound 0.1 µM): -4.6%
inhibition (PRKCE (human); compound 1.0 µM): 5.9%
inhibition (PIM2 (human); compound 0.1 µM): 15.4%
inhibition (PIM2 (human); compound 1.0 µM): 16.5%
inhibition ([2]; compound 0.1 µM): 1.4%
inhibition ([2]; compound 1.0 µM): 12.7%
inhibition (MAPK13 (human); compound 0.1 µM): -3.2%
inhibition (MAPK13 (human); compound 1.0 µM): -9.3%
inhibition (MAPKAPK2 (human); compound 0.1 µM): -2.6%
inhibition (MAPKAPK2 (human); compound 1.0 µM): 8%
inhibition (KDR (human); compound 0.1 µM): 32.6%
inhibition (KDR (human); compound 1.0 µM): 64%
inhibition (RPS6KA1 KD1 KD2 (human); compound 0.1 µM): -12.4%
inhibition (RPS6KA1 KD1 KD2 (human); compound 1.0 µM): -3%
inhibition (CDK2 (human); compound 0.1 µM): 1.2%
inhibition (CDK2 (human); compound 1.0 µM): -3.9%
inhibition (CAMK4 (human); compound 0.1 µM): -1.6%
inhibition (CAMK4 (human); compound 1.0 µM): -6.4%
inhibition (MAPKAPK3 (human); compound 0.1 µM): 5.4%
inhibition (MAPKAPK3 (human); compound 1.0 µM): 5.7%
inhibition (TSSK2 (human); compound 0.1 µM): -37%
inhibition (TSSK2 (human); compound 1.0 µM): 10.5%
inhibition (MAPK3 (human); compound 0.1 µM): -0.7%
inhibition (MAPK3 (human); compound 1.0 µM): 3.6%
inhibition (RPS6KA5 KD1 KD2 (human); compound 0.1 µM): 8%
inhibition (RPS6KA5 KD1 KD2 (human); compound 1.0 µM): 4.1%
SMILES: Cn1cc(-c2cnc3ccc4ccc(CS(N)(=O)=O)cc4c(=O)c3c2)cn1

Source: the kinase profiling compilation of Christmann-Franck et al. (2016)
